Measured values published in ChEMBL document CHEMBL4359904, “Structural tuning of acridones for developing anticancer agents targeting dihydrofolate reductase” (Bioorg Med Chem Lett, 2019).
The source made the active and inactive calls. The calls are words filed in the database; no cut-off is given here.

Legend:
MDA-MB-468 = assay: Growth inhibition of human MDA-MB-468 cells at 10^-5 M incubated for 48 hrs by sulforhodamine B assay relative to control; assay type: functional; details: MDA-MB-468, 48 h, read-out: GI
MDA-MB-435 = assay: Growth inhibition of human MDA-MB-435 cells incubated for 48 hrs by sulforhodamine B assay; assay type: functional; details: MDA-MB-435, 48 h
NCI-H23 = assay: Growth inhibition of human NCI-H23 cells incubated for 48 hrs by sulforhodamine B assay; assay type: functional; details: NCI-H23, 48 h
SK-MEL-28 = assay: Growth inhibition of human SK-MEL-28 cells incubated for 48 hrs by sulforhodamine B assay; assay type: functional; details: SK-MEL-28, 48 h
C6 [1] = assay: Induction of morphological changes in rat C6 cells assessed as increase in total length of processes measured after 24 hrs by inverted microscopy analysis relative to control; assay type: functional
C6 [2] = assay: Cell cycle arrest in rat C6 cells assessed as cell population at G0/G1 phase measured after 24 hrs by propidium iodide staining based flow cytometry analysis; assay type: functional
IGROV-1 [3] = assay: Growth inhibition of human IGROV1 cells at 10^-5 M incubated for 48 hrs by sulforhodamine B assay relative to control; assay type: functional; details: IGROV-1, 48 h, read-out: GI
UACC-62 = assay: Growth inhibition of human UACC62 cells incubated for 48 hrs by sulforhodamine B assay; assay type: functional; details: UACC-62, 48 h
C6 [4] = assay: Antiproliferative activity against rat C6 cells assessed as decrease in cell viability measured after 48 hrs by MTT assay; assay type: functional, cell-based
KM12 = assay: Growth inhibition of human KM12 cells incubated for 48 hrs by sulforhodamine B assay; assay type: functional; details: KM12, 48 h
CAKI-1 = assay: Growth inhibition of human Caki1 cells incubated for 48 hrs by sulforhodamine B assay; assay type: functional; details: CAKI-1, 48 h
SN12C = assay: Growth inhibition of human SN12C cells incubated for 48 hrs by sulforhodamine B assay; assay type: functional
RXF 393 = assay: Growth inhibition of human RXF393 cells incubated for 48 hrs by sulforhodamine B assay; assay type: functional; details: RXF 393, 48 h
K562 = assay: Growth inhibition of human K562 cells incubated for 48 hrs by sulforhodamine B assay; assay type: functional; details: K562, 48 h
TK-10 = assay: Growth inhibition of human TK10 cells incubated for 48 hrs by sulforhodamine B assay; assay type: functional; details: TK-10, 48 h
NCI-H226 = assay: Growth inhibition of human NCI-H226 cells incubated for 48 hrs by sulforhodamine B assay; assay type: functional; details: NCI-H226, 48 h
LOX IMVI = assay: Growth inhibition of human LOXIMVI cells incubated for 48 hrs by sulforhodamine B assay; assay type: functional
NCI-H460 [5] = assay: Growth inhibition of human NCI-H460 cells at 10^-5 M cells incubated for 48 hrs by sulforhodamine B assay relative to control; assay type: functional
OVCAR-4 = assay: Growth inhibition of human OVCAR4 cells incubated for 48 hrs by sulforhodamine B assay; assay type: functional; details: OVCAR-4, 48 h
NCI-H460 [6] = assay: Growth inhibition of human NCI-H460 cells incubated for 48 hrs by sulforhodamine B assay; assay type: functional; details: NCI-H460, 48 h
HOP-62 = assay: Growth inhibition of human HOP62 cells incubated for 48 hrs by sulforhodamine B assay; assay type: functional; details: HOP-62, 48 h
CCRF-CEM = assay: Growth inhibition of human CCRF-CEM cells incubated for 48 hrs by sulforhodamine B assay; assay type: functional
Dihydrofolate reductase = target: T1, Dihydrofolate reductase (Homo sapiens, UniProt P00374); assay: Inhibition of human dihydrofolate reductase using dihydrofolic acid as substrate preincubated for 1 hr in presence of NADPH followed by substrate addition by enzyme immunoassay
T1 sequence (P00374 whole entry): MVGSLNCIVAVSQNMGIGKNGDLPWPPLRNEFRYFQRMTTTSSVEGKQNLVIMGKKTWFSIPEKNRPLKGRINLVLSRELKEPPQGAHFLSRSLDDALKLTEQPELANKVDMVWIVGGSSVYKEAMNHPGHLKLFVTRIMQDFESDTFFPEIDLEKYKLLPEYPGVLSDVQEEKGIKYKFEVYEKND

IGROV-1 [7] = assay: Growth inhibition of human IGROV1 cells incubated for 48 hrs by sulforhodamine B assay; assay type: functional; details: IGROV-1, 48 h
RPMI-8226 = assay: Growth inhibition of human RPMI8226 cells incubated for 48 hrs by sulforhodamine B assay; assay type: functional; details: RPMI-8226, 48 h
SF-268 = assay: Growth inhibition of human SF268 cells incubated for 48 hrs by sulforhodamine B assay; assay type: functional; details: SF-268, 48 h
ACHN = assay: Growth inhibition of human ACHN cells incubated for 48 hrs by sulforhodamine B assay; assay type: functional
T47D = assay: Growth inhibition of human T47D cells incubated for 48 hrs by sulforhodamine B assay; assay type: functional
Hs-578T = assay: Growth inhibition of human Hs578T cells incubated for 48 hrs by sulforhodamine B assay; assay type: functional
[8] = system: Panel NCI-60 (60 carcinoma cell lines); assay: Therapeutic index, ratio of LC50 for human NCI60 cells to GI50 for human NCI60 cells measured after 48 hrs by sulforhodamine B assay; assay type: functional
[9] = read-out: pLC50 (the source's name) (converted)
[10] = read-out: LC50 (the source's name)

O=c1c2ccccc2n(CC2CO2)c2ccccc12 (racemic)
inhibition of growth at 10 µM (MDA-MB-468): 100%
GI50 (MDA-MB-435): 282 nM
CC50 (MDA-MB-435; [9]): 4680 nM
TGI (MDA-MB-435; read-out: pTGI (converted)): 1230 nM
GI50 (NCI-H23): 295 nM
CC50 (NCI-H23; [9]): 57500 nM
TGI (NCI-H23; read-out: pTGI (converted)): 1290 nM
GI50 (SK-MEL-28): 407 nM
CC50 (SK-MEL-28; [9]): 11000 nM
TGI (SK-MEL-28; read-out: pTGI (converted)): 1950 nM
Activity (C6 [1]): 16 - 18%
Activity (C6 [2]): inactive
inhibition of growth at 10 µM (IGROV-1 [3]): 100%
GI50 (UACC-62): 234 nM
CC50 (UACC-62; [9]): 2400 nM
TGI (UACC-62; read-out: pTGI (converted)): 603 nM
inhibition (C6 [4]): Dose-dependent effect
IC50 (C6 [4]; C6, 48 h): 250 to 1500 nM
GI50 (KM12): 269 nM
CC50 (KM12; [9]): 7760 nM
TGI (KM12; read-out: pTGI (converted)): 977 nM
GI50 (CAKI-1): 174 nM
CC50 (CAKI-1; [9]): > 100000 nM
TGI (CAKI-1; read-out: pTGI (converted)): 692 nM
GI50 (SN12C): 229 nM
CC50 (SN12C; [9]): 6170 nM
TGI (SN12C; read-out: pTGI (converted)): 1200 nM
GI50 (RXF 393): 214 nM
CC50 (RXF 393; [9]): 2290 nM
TGI (RXF 393; read-out: pTGI (converted)): 513 nM
GI50 (K562): 214 nM
CC50 (K562; [9]): > 100000 nM
TGI (K562; read-out: pTGI): > 100000 nM
GI50 (TK-10): 479 nM
CC50 (TK-10; [9]): > 100000 nM
TGI (TK-10; read-out: pTGI (converted)): 3090 nM
GI50 (NCI-H226): 302 nM
CC50 (NCI-H226; [9]): > 100000 nM
TGI (NCI-H226; read-out: pTGI (converted)): 1480 nM
GI50 (LOX IMVI; read-out: GI50): 120 nM
CC50 (LOX IMVI; [10]): 5120 nM
GI50 (LOX IMVI; read-out: pGI50 (converted)): 126 nM
CC50 (LOX IMVI; [9]): 5130 nM
TGI (LOX IMVI; read-out: pTGI (converted)): 646 nM
growth inhibition (GI) (NCI-H460 [5]): 100%
GI50 (OVCAR-4): 813 nM
CC50 (OVCAR-4; [9]): > 100000 nM
TGI (OVCAR-4; read-out: pTGI (converted)): 3980 nM
GI50 (NCI-H460 [6]): 380 nM
CC50 (NCI-H460 [6]; [9]): > 100000 nM
TGI (NCI-H460 [6]; read-out: pTGI (converted)): 1660 nM
GI50 (HOP-62): 380 nM
CC50 (HOP-62; [9]): > 100000 nM
TGI (HOP-62; read-out: pTGI (converted)): 2750 nM
GI50 (CCRF-CEM; read-out: GI50): 70 nM
CC50 (CCRF-CEM; [10]): > 100000 nM
GI50 (CCRF-CEM; read-out: pGI50 (converted)): 76.9 nM
CC50 (CCRF-CEM; [9]): > 100000 nM
IC50 (Dihydrofolate reductase): 20 nM
GI50 (IGROV-1 [7]): 331 nM
CC50 (IGROV-1 [7]; [9]): 67600 nM
TGI (IGROV-1 [7]; read-out: pTGI (converted)): 2570 nM
GI50 (RPMI-8226): 302 nM
CC50 (RPMI-8226; [9]): > 100000 nM
TGI (RPMI-8226; read-out: pTGI (converted)): 1100 nM
GI50 (SF-268; read-out: GI50): 160 nM
CC50 (SF-268; [10]): > 100000 nM
GI50 (SF-268; read-out: pGI50 (converted)): 170 nM
CC50 (SF-268; [9]): > 100000 nM
TGI (SF-268; read-out: pTGI (converted)): 1120 nM
GI50 (ACHN; read-out: GI50): 90 nM
CC50 (ACHN; [10]): 790 nM
GI50 (ACHN; read-out: pGI50 (converted)): 95.5 nM
CC50 (ACHN; [9]): 794 nM
TGI (ACHN; read-out: pTGI (converted)): 282 nM
GI50 (T47D): 891 nM
CC50 (T47D; [9]): > 100000 nM
TGI (T47D; read-out: pTGI (converted)): 5500 nM
GI50 (Hs-578T): 575 nM
CC50 (Hs-578T; [9]): > 100000 nM
TGI (Hs-578T; read-out: pTGI (converted)): 3890 nM
TI [8]: 28
